# Literature values in publication PMC5143208 (American journal of transplantation : official journal of …, 2016).
# System: CCR2
# Settings: in vitro
substance,measurement,value
d(LGTFLKC) [ECL1i],binding to CCR2,selectively bind CCR2 in a non-competitive way
